# According to patent US9694018B1, “IBAT inhibitors for the treatment of liver disease” (Albireo AB, priority 2010, dated 2017):
# Tested on: Mdr2−/− mice
# Assay: In vivo animal model of primary sclerosing cholangitis (Mdr2-/- mice)
# Details: daily oral gavage for 2-4 weeks, vs vehicle
# Text: A genetic mice with targeted disruption of the Multidrug resistant Mdr2 (Abcb4) gene encoding a canalicular phospholipid flippase (Mdr2−/− mice) spontaneously develop sclerosing cholangitis with macroscopic and microscopic features of human Primary sclerosing cholangitis. Bile duct injury in these mice is linked to defective biliary phospholipid secretion resulting in an increased concentration of free non-micellar bile acids which subsequently cause bile duct epithelial cell (cholangiocyte) injury, pericholangitis, periductal fibrosis with ductular proliferation and finally sclerosing cholangitis. […] In analogy to the Mdr2−/− mouse model of sclerosing cholangitis, Multidrug resistant protein MDR3/ABCB4 (the human orthologue of rodent Mdr2/Abcb4) defects play a role in the pathogenesis of various cholangiopathies in humans. MDR3 variants play a role as a modifier gene in the pathogenesis of various cholangiopathies such as PSC, Primary Biliary cirrhosis (PBC) and adulthood idiopathic ductopenia/billary fibrosis.
# Mdr2−/− mice were given daily oral doses of the compound of Example 14 by gavage for 2-4 weeks and controls were dosed the vehicle in the same way. Serum liver tests, liver histology and fibrosis were investigated. The compound of Example 14 improves liver tests, liver histology and fibrosis.
compound,measurement,value
"CCCCC1(CCCC)CN(c2ccccc2)c2cc(SC)c(OCC(=O)N[C@@H](C(=O)NCC(=O)O)c3ccccc3)cc2S(=O)(=O)C1 [Example 14, 1,1-Dioxo-3,3-dibutyl-5-phenyl-7-methylthio-8-(N—{(R)-1′-phenyl-1′-[N′-(carboxymethyl)carbamoyl]methyl}carbamoylmethoxy)-2,3,4,5-tetrahydro-1,5-benzothiazepine]",Serum liver tests,improves
